Data reported in publication PMC4192597, “Antimicrobials, Stress and Mutagenesis” (PLoS Pathogens, 2014).
≈ marks a conversion by molar mass, not a printed value.

Experiments:
E. coli MG1655 [1] = test: microbe, parasite or virus in culture; type: cell-based, Escherichia coli; conditions: Escherichia coli, 4 hours, 50% reduction of CFUs vs control, Mueller Hinton Broth, 37°C, five replicates, repeated twice, read-out: MIC50
Description: The MIC50s for all antimicrobials were determined by inoculating strains grown to mid-log phase into the wells of a 96-microwell plate. Approximately 10^2 cells from overnight cultures were inoculated into tubes containing 10 ml of Mueller Hinton Broth medium, and the tubes were incubated at 37°C with strong shaking until the mid-log phase of growth (approximately 10^8 cells/ml). […] The plates were incubated at 37°C for 4 h with continuous shaking in a plate reader (Synergy 2, BioTeK). After four hours, aliquots from wells with OD^600 readings ranging from 10 to 90% values in comparison with the control, were serially diluted in sterile 0.9% NaCl, and incubated during 1 hour to allow the resolution of filaments as consequence of SOS activation, if any. Bacterial suspensions were plated in Mueller Hinton Broth agar plates to estimate the viability as colony forming units (CFUs). Five replicates per concentration were prepared and the experiments were repeated twice.

[2] = system: E. coli stress response genes (strain MG1655); test: Relative gene expression of stress response genes by quantitative real-time PCR; type: cell-based, Escherichia coli; conditions: qPCR, 20 minutes exposure vs non-treated bacteria; for Result, cpxR: key: NDE: non-differentially expressed, p-value ≥ 0,05; UP: upregulated, p-value ≤ 0,05; DOWN: downregulated, p-value ≤ 0,05; for Result, oxyR: key: NDE: non-differentially expressed, p-value ≥ 0,05; UP: upregulated, p-value ≤ 0,05; DOWN: downregulated, p-value ≤ 0,05
Description: Preparation of each of the six treatments and the control samples was carried out by two operators on three consecutive days, thereby comprising three biological replicates for each of the six experimental and one control groups. To obtain the starting material for the experiment, a fresh bacterial culture was grown from a glycerol stock on Mueller-Hinton (MH) agar plates at 37°C for 18–24 hours. One well-isolated colony per biological replicate was used to inoculate 2 ml of liquid MH (Sigma) in a 10 ml sterile polypropylene tube and incubated at 37°C for 16 hours with mild shaking. The overnight (ON) culture was then diluted 1∶100 in MH, subdivided into seven 10 ml aliquots and incubated in 50 ml-Falcon tubes at 37°C for 2.5 hours at 220 rpm. When the OD600 of bacterial cultures reached 0.5–0.7, respective antibiotics and AMPs were added to a concentration to match with those used in the mutagenesis experiments. These bacterial cultures were incubated for 20 minutes at 37°C with gentle shaking. Two ml of bacterial cultures from each treatment and the control were collected, immediately centrifuged at 10000 g for 2 minutes and the supernatant was removed to stop the treatment. The bacterial pellet was then resuspended in 1 ml MH, followed by an addition of 1 ml of RNAprotect Bacteria Reagent (Qiagen), 5 minutes incubation and centrifugation at 10000 g for 2 minutes at room temperature. The supernatant was discarded and the bacterial pellet was immediately frozen and stored at −80°C until RNA extraction.
Total RNA was isolated using RNeasy kit (Qiagen) according to the manufacturer's instructions and eluted in 50 µl of RNase-free water. The nucleic acid yield and purity were determined by measuring the optical density at A260/280 using a Nanodrop spectrophotometer (Thermo Scientific). RNA samples were treated with TURBO DNase (Life Technologies). Briefly, ten µg of RNA were used in a total volume of 500 µl containing 20 units of TURBO DNase, incubated for 30 minutes at 37°C, immediately followed by RNeasy (Qiagen) cleanup and elution in 30 µl of RNase-free water. Following DNase treatment, RNA integrity was assessed using Agilent RNA 6000 Nano kit and 2100 Bioanalyzer instrument (both Agilent Technologies).
High-Capacity cDNA Reverse Transcription Kit with RNase Inhibitor (Applied Biosystems) was used for cDNA synthesis. Initially, to ensure linear conversion of the transcripts, the dynamic range of reverse transcription reaction was tested by performing a standard curve with cDNA, synthesised using various input amounts of pooled RNA. Total RNA (250 ng per reaction) and random primers were used for cDNA synthesis. To obtain sufficient amount of cDNA, several batches of 20 µl RT reactions were pooled, diluted 50-fold with RNase-free water and stored in single-use aliquots at −80°C until further use. All 21 samples were tested for presence of contaminating genomic DNA by running the mdoG assay with cDNA and the respective no reverse transcription (−RT) controls.
Escherichia coli strain K-12 substrain MG1655 complete genome (accession U00096) sequence was downloaded from NCBI database (www.ncbi.nlm.nih.gov) and used for primer design. Target sequence accession number, location of the amplicon, amplicon length and primer sequences for each assay can be found in table S2. Primers were designed using Primer Express software (Applied Biosystems) and optimized for annealing temperature of 60°C. Each primer pair and amplicon were checked for secondary structure formation using Oligo Tool (Integrated DNA technologies, http://eu.idtdna.com/analyzer/Applications/OligoAnalyzer/).

E. coli MG1655 [3] = test: Minimal inhibitory concentration (MIC), micro-dilution; type: cell-based, Escherichia coli; conditions: Escherichia coli, inoculum 2×10^8 cfu/ml, 24 h, liquid MH medium, 37°C, read-out: MIC
Description: E. coli K-12 MG1655 was used for all experiments, grown in liquid Mueller-Hilton (MH) agar or agarose, unless otherwise indicated. All experiments were carried out at 37°C.
MICs were determined according to CLSI recommendations by a micro-dilution method with the exception that the inoculum size that was adjusted to 2×10^8 cfu/ml from a regrowth of overnight cultures to be consistent with the mutagenesis experiments. […] Polypropylene non-binding plates (Th. Geyer, Germany) were used for all experiments.

[4] = system: E. coli stress response genes; conditions: cited from earlier work
[5] = normalized to arcA, mdoG, tus, Pexiganan 16, Melittin 16, Kanamycin 16, Ciprofloxacin 0.5, Lysozyme 128, Ampicillin 32 μg/ml, three biological replicates
[6] = ampicillin 5 μg/ml, 120 min, ref Kohanski,2007

SMILES: CC1(C)S[C@@H]2[C@H](NC(=O)[C@H](N)c3ccccc3)C(=O)N2[C@H]1C(=O)O [Ampicillin]
- MIC50 (E. coli MG1655 [1]): 3.2 µg/mL
- Result, cpxA ([2]; REST 2009 randomisation test): NDE
- Result, cpxR ([2]; REST 2009 randomisation test): NDE
- Result, dinB ([2]; REST 2009 randomisation test): NDE
- Result, lexA ([2]; REST 2009 randomisation test): NDE
- Result, marR ([2]; REST 2009 randomisation test): UP (2.5-fold)
- Result, oxyR ([2]; REST 2009 randomisation test): NDE
- Result, phoP ([2]; REST 2009 randomisation test): NDE
- Result, phoQ ([2]; REST 2009 randomisation test): NDE
- Expression, cpxA (Envelope stress) [2, 5]: 1.083
- Expression, cpxR (Envelope stress) [2, 5]: 0.988
- Expression, dinB (SOS response) [2, 5]: 1.623
- Expression, lexA (SOS response) [2, 5]: 1.563
- Expression, marR (Independent multiple antibiotic resistance) [2, 5]: 2.498
- Expression, oxyR (Oxidative stress) [2, 5]: 0.923
- Expression, phoP (Envelope stress) [2, 5]: 1.026
- Expression, phoQ (Envelope stress) [2, 5]: 0.96
- Expression, recA (SOS response) [2, 5]: 1.627
- Expression, rpoE (Envelope stress) [2, 5]: 0.815
- Expression, rpoS (Sigma S response) [2, 5]: 1.31
- Expression, umuC (SOS response) [2, 5]: 1.373
- MIC (E. coli MG1655 [3]): 4 µg/mL (≈ 11.4 µM)
- expression, lexA (microarray database) [4, 6]: 2.143
- expression, marR (microarray database) [4, 6]: 4.064
- expression, phoP (microarray database) [4, 6]: -2.302
- expression, rpoS (microarray database) [4, 6]: -2.26
- expression, rpoE (microarray database) ([4]; ampicillin 25 μg/ml, 30 min, ref Shaw,2003): -4.545
